Assay results reported in article PMC9062515, “Identification of the Biosynthetic Pathway of Glycine Betaine That Is Responsible for Salinity Tolerance in Halophilic Thioalkalivibrio versutus D301” (Frontiers in Microbiology, 2022).

Columns and labels:
TvSDMT = biological target: T1, TvSDMT (Thioalkalivibrio versutus, UniProt A0A0G3G397); assay: methyltransferase assay, HPLC of product; assay type: biochemical; settings: 10 mM SAM, MgCl2, pH 7.5, 37 °C
T1 construct: gene TVD_00880; His-tagged, pET-28a(+), E. coli BL21(DE3), Ni Sepharose; calculated 32 kDa
T1 sequence (A0A0G3G397 1-282): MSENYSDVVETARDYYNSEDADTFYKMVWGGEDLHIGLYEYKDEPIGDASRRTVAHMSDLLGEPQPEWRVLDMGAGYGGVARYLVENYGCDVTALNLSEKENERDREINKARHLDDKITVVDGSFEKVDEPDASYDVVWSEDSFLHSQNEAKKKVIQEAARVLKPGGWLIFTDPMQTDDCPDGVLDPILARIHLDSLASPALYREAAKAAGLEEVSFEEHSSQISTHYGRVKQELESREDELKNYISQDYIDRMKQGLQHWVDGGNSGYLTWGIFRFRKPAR

TvGMT = biological target: T2, TvGMT (Thioalkalivibrio versutus, UniProt A0A0G3G560); assay: methyltransferase assay, HPLC of product; assay type: biochemical; settings: 250 mM glycine, 10 mM SAM, MgCl2, pH 7.5, 37 °C
T2 construct: gene TVD_00875; His-tagged, pET-28a(+), E. coli BL21(DE3), Ni Sepharose; calculated 32 kDa
T2 sequence (A0A0G3G560 1-272): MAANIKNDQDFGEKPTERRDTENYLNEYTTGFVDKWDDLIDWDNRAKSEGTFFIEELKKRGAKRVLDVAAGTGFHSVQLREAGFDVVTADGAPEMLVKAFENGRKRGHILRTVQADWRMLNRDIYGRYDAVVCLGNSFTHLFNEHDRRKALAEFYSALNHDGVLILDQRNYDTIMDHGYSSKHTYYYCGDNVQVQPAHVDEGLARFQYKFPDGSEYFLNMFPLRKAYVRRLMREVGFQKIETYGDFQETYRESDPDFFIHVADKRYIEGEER

CN(C)CC(=O)O [dimethylglycine]
methyltransferase assay, HPLC of product (TvSDMT; 50 mM dimethylglycine): exhibited activities on both sarcosine and dimethylglycine, showing a higher specific activity toward dimethylglycine

CNCC(=O)O [sarcosine]
methyltransferase assay, HPLC of product (TvSDMT; 60 mM sarcosine): TvSDMT, exhibited activities on both sarcosine and dimethylglycine

NCC(=O)O [glycine]
methyltransferase assay, HPLC of product (TvGMT): The purified TVD_RS00875 converted glycine to sarcosine with a relatively high specific activity
